Data on 23 compounds can be found in ChEMBL document CHEMBL5291721, “A preclinical secondary pharmacology resource illuminates target-adverse drug reaction associations of marketed drugs” (Nat Commun, 2023).

A value given as a limit tells only on which side of the number the result lay.

One may read the AC50 as the concentration at which the activity in the assay is half-maximal. Higher therefore signals weaker potency.

Assay [1] deals with 5-hydroxytryptamine receptor 2B (Homo sapiens, UniProt P41595). The class given is functional, cell-based.
5-hydroxytryptamine receptor 2B, sequence (P41595 whole entry): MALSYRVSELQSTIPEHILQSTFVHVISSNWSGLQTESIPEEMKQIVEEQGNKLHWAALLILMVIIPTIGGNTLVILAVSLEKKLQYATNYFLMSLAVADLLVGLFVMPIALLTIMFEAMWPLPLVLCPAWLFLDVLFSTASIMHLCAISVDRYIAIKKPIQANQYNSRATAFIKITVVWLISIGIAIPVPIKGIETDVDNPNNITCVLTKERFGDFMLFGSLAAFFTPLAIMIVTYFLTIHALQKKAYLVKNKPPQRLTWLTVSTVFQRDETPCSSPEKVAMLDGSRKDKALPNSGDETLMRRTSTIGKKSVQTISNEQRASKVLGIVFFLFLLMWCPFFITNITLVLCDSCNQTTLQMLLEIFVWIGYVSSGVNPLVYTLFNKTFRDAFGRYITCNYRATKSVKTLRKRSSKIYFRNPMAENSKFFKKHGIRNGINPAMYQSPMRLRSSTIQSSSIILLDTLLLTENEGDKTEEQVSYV
In assay [2] the target is Vasopressin V2 receptor (Homo sapiens, UniProt P30518).
Vasopressin V2 receptor, sequence (P30518 whole entry): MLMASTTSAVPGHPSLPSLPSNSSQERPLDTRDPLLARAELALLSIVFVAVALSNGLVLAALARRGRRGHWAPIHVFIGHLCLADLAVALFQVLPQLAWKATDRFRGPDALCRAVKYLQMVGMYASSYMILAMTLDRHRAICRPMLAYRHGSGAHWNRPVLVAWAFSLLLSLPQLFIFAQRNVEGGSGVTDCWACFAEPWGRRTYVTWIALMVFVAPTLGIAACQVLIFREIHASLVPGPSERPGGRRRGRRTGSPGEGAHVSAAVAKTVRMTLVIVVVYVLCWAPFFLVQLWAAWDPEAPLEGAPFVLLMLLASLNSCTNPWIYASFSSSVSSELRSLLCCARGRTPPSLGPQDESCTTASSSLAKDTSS
Assay [3] addresses T1, Muscarinic acetylcholine receptor M2 (Homo sapiens, UniProt P08172).
T1 sequence (P08172 whole entry): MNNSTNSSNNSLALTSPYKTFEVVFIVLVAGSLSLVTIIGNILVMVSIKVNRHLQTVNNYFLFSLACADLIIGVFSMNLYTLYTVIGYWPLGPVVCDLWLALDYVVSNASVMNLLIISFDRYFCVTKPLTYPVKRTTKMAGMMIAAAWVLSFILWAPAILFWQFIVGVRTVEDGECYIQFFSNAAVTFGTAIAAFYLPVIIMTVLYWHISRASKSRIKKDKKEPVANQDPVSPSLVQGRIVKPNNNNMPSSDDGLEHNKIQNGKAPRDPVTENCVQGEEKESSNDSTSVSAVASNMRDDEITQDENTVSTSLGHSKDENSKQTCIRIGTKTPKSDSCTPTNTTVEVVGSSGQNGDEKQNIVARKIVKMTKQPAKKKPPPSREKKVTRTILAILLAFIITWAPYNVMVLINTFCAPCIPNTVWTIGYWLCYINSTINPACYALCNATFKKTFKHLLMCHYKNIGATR
The class given is functional, cell-based.

The target of assay [4] is cGMP-inhibited 3',5'-cyclic phosphodiesterase 3A (Homo sapiens, UniProt Q14432). The class given is functional.
cGMP-inhibited 3',5'-cyclic phosphodiesterase 3A, sequence (Q14432 whole entry): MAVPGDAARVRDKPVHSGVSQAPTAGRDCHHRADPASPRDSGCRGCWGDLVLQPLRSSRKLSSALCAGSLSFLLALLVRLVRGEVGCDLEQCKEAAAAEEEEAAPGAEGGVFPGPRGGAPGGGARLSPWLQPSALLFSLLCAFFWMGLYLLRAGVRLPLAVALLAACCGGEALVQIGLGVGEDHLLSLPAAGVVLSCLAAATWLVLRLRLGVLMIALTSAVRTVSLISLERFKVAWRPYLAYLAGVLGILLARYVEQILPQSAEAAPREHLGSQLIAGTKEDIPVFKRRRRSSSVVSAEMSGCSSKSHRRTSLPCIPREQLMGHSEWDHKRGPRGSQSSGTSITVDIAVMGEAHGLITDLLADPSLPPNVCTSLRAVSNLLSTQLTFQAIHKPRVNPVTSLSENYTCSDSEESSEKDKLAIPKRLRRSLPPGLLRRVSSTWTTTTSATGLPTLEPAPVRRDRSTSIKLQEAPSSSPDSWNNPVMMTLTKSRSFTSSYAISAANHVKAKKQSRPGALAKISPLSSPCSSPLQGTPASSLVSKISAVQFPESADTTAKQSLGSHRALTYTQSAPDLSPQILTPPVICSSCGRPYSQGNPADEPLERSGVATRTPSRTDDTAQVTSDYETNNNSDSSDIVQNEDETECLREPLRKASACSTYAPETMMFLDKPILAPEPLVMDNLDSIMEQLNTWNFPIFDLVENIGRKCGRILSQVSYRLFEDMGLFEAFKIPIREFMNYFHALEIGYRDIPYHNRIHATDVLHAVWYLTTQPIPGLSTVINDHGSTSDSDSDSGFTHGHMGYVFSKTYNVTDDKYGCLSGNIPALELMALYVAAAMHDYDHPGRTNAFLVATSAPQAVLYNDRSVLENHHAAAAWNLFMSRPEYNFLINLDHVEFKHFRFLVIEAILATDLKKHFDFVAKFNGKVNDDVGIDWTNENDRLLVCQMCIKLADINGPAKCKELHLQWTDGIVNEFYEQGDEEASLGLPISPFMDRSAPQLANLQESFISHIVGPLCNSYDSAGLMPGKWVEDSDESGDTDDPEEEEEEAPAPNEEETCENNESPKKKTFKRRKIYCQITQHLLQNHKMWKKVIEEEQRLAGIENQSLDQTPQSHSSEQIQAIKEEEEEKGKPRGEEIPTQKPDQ
The target of assay [5] is T2, Alpha-1A adrenergic receptor (Homo sapiens, UniProt P35348).
T2 sequence (P35348 whole entry): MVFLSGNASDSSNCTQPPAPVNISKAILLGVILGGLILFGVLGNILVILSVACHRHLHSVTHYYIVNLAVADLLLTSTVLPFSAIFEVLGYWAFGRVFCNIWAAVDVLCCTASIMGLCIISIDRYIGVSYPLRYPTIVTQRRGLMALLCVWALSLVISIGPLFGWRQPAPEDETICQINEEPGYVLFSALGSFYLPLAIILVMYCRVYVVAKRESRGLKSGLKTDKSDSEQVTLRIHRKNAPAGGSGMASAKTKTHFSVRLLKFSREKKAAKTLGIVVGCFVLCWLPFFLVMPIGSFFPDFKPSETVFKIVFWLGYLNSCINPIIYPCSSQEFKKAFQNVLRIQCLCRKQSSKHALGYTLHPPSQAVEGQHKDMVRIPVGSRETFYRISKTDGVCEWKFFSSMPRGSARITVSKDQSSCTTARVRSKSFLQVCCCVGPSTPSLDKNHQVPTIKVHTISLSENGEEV
The class given is functional, cell-based.

Assay [6] has as its target T3, Alpha-2C adrenergic receptor (Homo sapiens, UniProt P18825).
T3 sequence (P18825 whole entry): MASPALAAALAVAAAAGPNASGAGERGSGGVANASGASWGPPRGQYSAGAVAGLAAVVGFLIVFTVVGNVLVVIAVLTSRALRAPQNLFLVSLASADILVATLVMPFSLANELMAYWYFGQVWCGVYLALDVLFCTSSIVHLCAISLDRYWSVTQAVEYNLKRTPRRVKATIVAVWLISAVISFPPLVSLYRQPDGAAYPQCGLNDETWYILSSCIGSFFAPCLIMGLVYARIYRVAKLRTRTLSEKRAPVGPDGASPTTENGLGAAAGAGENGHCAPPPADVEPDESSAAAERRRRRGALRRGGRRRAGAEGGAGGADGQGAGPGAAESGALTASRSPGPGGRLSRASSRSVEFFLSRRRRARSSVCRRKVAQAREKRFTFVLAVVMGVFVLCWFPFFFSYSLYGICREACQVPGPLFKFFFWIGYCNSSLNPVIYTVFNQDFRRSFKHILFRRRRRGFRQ
The assay is classed as functional.

The target in assay [7] is T4, Mu-type opioid receptor (Homo sapiens, UniProt P35372). Nature of the assay: biochemical. The class given is functional.
T4 sequence (P35372 whole entry): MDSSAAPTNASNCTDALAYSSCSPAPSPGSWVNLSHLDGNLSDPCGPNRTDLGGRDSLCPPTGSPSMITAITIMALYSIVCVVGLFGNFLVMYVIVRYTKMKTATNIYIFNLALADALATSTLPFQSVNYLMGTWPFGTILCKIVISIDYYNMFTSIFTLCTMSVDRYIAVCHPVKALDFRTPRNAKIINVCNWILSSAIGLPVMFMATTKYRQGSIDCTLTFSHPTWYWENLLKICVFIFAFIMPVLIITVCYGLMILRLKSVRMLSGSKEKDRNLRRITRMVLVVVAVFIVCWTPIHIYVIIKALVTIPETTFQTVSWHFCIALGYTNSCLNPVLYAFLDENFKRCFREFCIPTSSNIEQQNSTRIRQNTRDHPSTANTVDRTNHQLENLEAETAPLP
The target in assay [8] is T4, Mu-type opioid receptor.
Assay [9] deals with Sodium-dependent noradrenaline transporter (Homo sapiens, UniProt P23975).
Sodium-dependent noradrenaline transporter, sequence (P23975 whole entry): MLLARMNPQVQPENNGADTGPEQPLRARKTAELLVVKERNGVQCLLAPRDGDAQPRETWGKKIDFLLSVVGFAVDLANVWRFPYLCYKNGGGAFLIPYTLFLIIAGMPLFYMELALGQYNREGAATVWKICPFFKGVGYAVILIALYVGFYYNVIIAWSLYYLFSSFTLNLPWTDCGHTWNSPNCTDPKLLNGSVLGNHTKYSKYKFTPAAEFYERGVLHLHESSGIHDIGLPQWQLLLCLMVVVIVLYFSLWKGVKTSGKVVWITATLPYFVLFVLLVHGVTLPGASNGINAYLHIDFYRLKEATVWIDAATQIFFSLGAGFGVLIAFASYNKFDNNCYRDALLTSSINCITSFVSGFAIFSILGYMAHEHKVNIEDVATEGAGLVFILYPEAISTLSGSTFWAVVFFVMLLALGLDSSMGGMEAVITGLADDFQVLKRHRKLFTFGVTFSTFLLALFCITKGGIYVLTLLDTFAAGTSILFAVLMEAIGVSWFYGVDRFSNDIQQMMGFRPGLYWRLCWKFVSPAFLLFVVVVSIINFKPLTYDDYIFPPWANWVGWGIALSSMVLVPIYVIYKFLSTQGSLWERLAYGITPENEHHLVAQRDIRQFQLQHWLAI
Also: assay procedure not described here.

For `O=C1c2cccc3c2[C@H](CCC3)CN1[C@@H]1CN2CCC1CC2` [PALONOSETRON], the AC50 is above 30 µM in assay [1]; above 30 µM in assay [2]; above 30 µM in [3]; above 30 µM in [4]; above 30 µM in assay [5]; 4 µM in assay [6]. The compound also yielded an AC50 in assay [7] above 30 µM.
In the case of `Cc1cccc(C)c1NC(=O)CC12CCCN1CCC2` [PILSICAINIDE], the AC50 in assay [1], in assay [2], in assay [3], in [4], in [5] and in [6] was above 30 µM in each case. The AC50 in [7] was above 30 µM.
Consider `CC(C)c1cccc(C(C)C)c1O` [PROPOFOL], for which the concentration at half-maximal activity (AC50) in assay [8], in [1], in [3], in assay [4], in assay [5] and in [6] was above 30 µM each time.
On to `C[N+]1(C)CCC(=C(c2ccccc2)c2ccccc2)CC1`, for which the half-maximal activity concentration (AC50) in assay [8] is above 30 µM; in [1], above 10 µM; in assay [2] it was above 30 µM; in assay [4] it was above 30 µM; in assay [6] it was above 10 µM.
In the case of `CCOC(=O)c1c(CSc2ccccc2)n(C)c2cc(Br)c(O)c(CN(C)C)c12` [UMIFENOVIR], the AC50 in assay [1] is above 30 µM; in assay [2] it was above 30 µM; in assay [3], 28 µM; in assay [4] it was above 30 µM; in assay [5], above 30 µM; in assay [6] it was 12 µM. The AC50 in [7] was above 30 µM.
Take `COC(=O)C1=C(C)NC(C)=C(C(=O)OCCN2CCN(C(c3ccccc3)c3ccccc3)CC2)C1c1cccc([N+](=O)[O-])c1` (centres undefined) [MANIDIPINE 6300]: the AC50 in [1], in assay [2], in assay [3], in assay [4], in [5] and in [6] was above 30 µM throughout. For the same compound, in [7], the AC50 is above 30 µM.
Regarding `CCCN1CC(NS(=O)(=O)N(CC)CC)CC2Cc3c(O)cccc3CC21` (centres undefined) [QUINAGOLIDE], the concentration at half-maximal activity (AC50) is 3.67 µM in assay [1]; above 30 µM in assay [2]; above 30 µM in assay [3]; above 30 µM in [4]; 0.45 µM in [5]; 11 µM in assay [6]. The compound also had an AC50 in [7] above 30 µM.
On to `C=C1c2cccc(O)c2C(=O)C2=C(O)[C@]3(O)C(=O)C(C(N)=O)=C(O)[C@@H](N(C)C)[C@@H]3[C@@H](O)[C@H]12` [METHACYCLINE], for which the AC50 in assay [8] was above 30 µM; in assay [1], above 10 µM; in [2] it was above 30 µM; in assay [3], above 10 µM; in assay [4], above 30 µM; in assay [6], above 10 µM.
With `OC[C@H]1O[C@@H](n2cnc3c2NC=NC[C@H]3O)C[C@@H]1O` [PENTOSTATIN], the AC50 in [1], in [2], in assay [3], in assay [4], in [5] and in assay [6] was above 30 µM in each case. Besides, the half-maximal activity concentration (AC50) in assay [7] is above 30 µM.
Turning to `C[C@]12CCC(=O)C[C@@H]1CC[C@@H]1[C@@H]2CC[C@]2(C)[C@@H](O)CC[C@@H]12` [STANOLONE], the AC50 in [1], in assay [2], in assay [3], in [4], in assay [5] and in [6] was above 30 µM in each case. In [7], this compound came in with an AC50 above 30 µM.
Compound `CC[N+](C)(CC)CCOC(=O)C(O)(c1ccccc1)C1CCCCC1` (centres undefined) [OXYPHENONIUM] yielded an AC50 in [9] above 30 µM.
As for `C[N+](C)(C)CCOP(=O)([O-])OC[C@H](O)CO`, the AC50 in [1], in assay [2], in assay [3], in [4], in assay [5] and in [6] was above 30 µM in each case. Also, the half-maximal activity concentration (AC50) in assay [7] was above 30 µM.
For the compound `CC1=C(C(=O)OC(C)C)C(c2cccc([N+](=O)[O-])c2)C(C(=O)OC2CN(C(c3ccccc3)c3ccccc3)C2)=C(N)N1` (centres undefined) [AZELNIDIPINE], the AC50 in [1] is above 30 µM; in [2], above 30 µM; in assay [3] it was above 30 µM; in assay [4] it was above 30 µM; in assay [5], above 30 µM; in assay [6], 13 µM. This compound also yielded a concentration at half-maximal activity (AC50) in [7] above 30 µM.
With `CN[C@]1(c2ccccc2Cl)CCCCC1=O` [ESKETAMINE], the AC50 in assay [1], in assay [2], in assay [3], in assay [4], in assay [5] and in assay [6] was above 30 µM in each case. This compound also yielded a concentration at half-maximal activity (AC50) in [7] above 30 µM.
Turning to `CCOC(=O)c1ccc(N)cc1` [BENZOCAINE], the AC50 in assay [8] is above 30 µM; in assay [1], above 10 µM; in assay [2], above 10 µM; in assay [3], above 10 µM; in assay [4] it was above 30 µM; in [6], above 10 µM.
Turning to `C=C1CC[C@H](O)C/C1=C/C=C1\CCC[C@]2(C)[C@@H]([C@H](C)CCCC(C)C)CC[C@@H]12` [CHOLECALCIFEROL], the AC50 in [9] is above 10 µM.
Still for that read-out and setting: as for `Cc1ccc(C(=O)C(C)CN2CCCCC2)cc1` (centres undefined) [TOLPERISONE], the figure is above 30 µM.
As to `O=C(O)COCCN1CCN(C(c2ccccc2)c2ccc(Cl)cc2)CC1` (centres undefined) [CETIRIZINE], the half-maximal activity concentration (AC50) in assay [2] was above 30 µM; in assay [4], above 30 µM; in [5], above 30 µM; in [6], above 10 µM.
In the case of `O=C1OC(OC(=O)c2cccnc2Nc2cccc(C(F)(F)F)c2)c2ccccc21` (centres undefined) [TALNIFLUMATE], the concentration at half-maximal activity (AC50) in assay [1], in [2], in [3], in assay [4], in assay [5] and in [6] was above 30 µM in each case. Further, the concentration at half-maximal activity (AC50) in assay [7] was above 30 µM.
For the compound `CN(C)Cc1nnc2n1-c1ccc(Cl)cc1C(c1ccccc1)=NC2` [ADINAZOLAM], the AC50 is above 30 µM in assay [8]; above 10 µM in assay [1]; above 10 µM in assay [2]; above 10 µM in assay [3]; above 30 µM in [4]; above 10 µM in assay [6].
Consider `CCOC(=O)C1=C(C)NC(C)=C(C(=O)OCC)C1c1ccccc1/C=C/C(=O)OC(C)(C)C` [LACIDIPINE], for which the AC50 in [1], in [2], in assay [3], in [4], in [5] and in assay [6] was above 30 µM in each case. Moreover, in assay [7], the concentration at half-maximal activity (AC50) is above 30 µM.
For the compound `CN(C)C/C=C/C(=O)Nc1cc2c(Nc3ccc(F)c(Cl)c3)ncnc2cc1O[C@H]1CCOC1` [AFATINIB], the concentration at half-maximal activity (AC50) in assay [1] is above 30 µM; in assay [2], above 30 µM; in assay [3], 23 µM; in assay [4] it was above 30 µM; in assay [5], above 30 µM; in assay [6], above 30 µM. In addition, in assay [7], the AC50 is above 30 µM.
On to `CNCCc1ccc(OC(=O)C(C)C)c(OC(=O)C(C)C)c1` [IBOPAMINE], for which the concentration at half-maximal activity (AC50) is above 30 µM in [1]; above 30 µM in [2]; above 30 µM in [3]; above 30 µM in [4]; 0.131 µM in assay [5]; 8.4 µM in assay [6]. The same compound came in with an AC50 in assay [7] above 30 µM.
